Columns and labels:
[1] = calculated from published PK profiles; cited from earlier work
[2] = tested on: healthy volunteers; assay: Euglycaemic glucose clamp after single SC dose in healthy volunteers; type: in vivo, human
Protocol: In all treatment periods, subjects undergo a euglycaemic clamp procedure for up to 24/36 hours following each insulin compound injection. Glucose infusion rates (GIR) are adjusted to maintain euglycaemia, with the documented GIR over time providing the GD measure of insulin action. The aim of the euglycaemic glucose clamp is to maintain euglycaemia through glucose infusion after the administration of a dose of an insulin compound. It is assumed that endogenous insulin secretion and hepatic glucose output are minimal and that any glucose that is translocated out of the glucose space (i.e., glucose metabolised) is the direct consequence of the administered exogenous insulin. The GIR in this case will be the glucodynamic (GD) measure of the insulin action over time. All glucose clamp studies are performed after an overnight fast of approximately 8 hours. On the morning of the study, a small catheter is placed into a vein of one arm, ideally in the ante-cubital fossa, for administration of 20% dextrose solution (buffered to near neutral pH) under the control of a volumetric pump. Another catheter is placed, ideally in the wrist or hand for venous glucose sampling. This area is heated with a warming device to approximately 55-60° C. for sampling arterialized venous blood. Blood samples are obtained at the bedside for immediate determination of whole blood glucose concentrations using an automated glucose oxidase technique. After basal blood sampling and a stabilization period of approximately 30 minutes, each subject receives a dose of insulin compound administered subcutaneously. The start of the subcutaneous injection of an insulin compound is defined as time zero. Following completion of dosing, in conjunction with frequent blood sampling for measurement of blood glucose, glucose is infused intravenously at a variable rate in order to maintain euglycaemia for up to 24 or 36 hours after insulin administration.
Blood sampling occurs approximately every 10 minutes for approximately 30 minutes prior to dosing and continued every 5-10 minutes for the first 2 hours after dosing (with the option to sample as frequently as every 2.5 minutes), and then reduced to 10-30 minute intervals up to the end of clamp.
During the glucose clamp, the glucose infusion rate is adjusted to maintain a pre-determined target blood glucose concentration for the individual subject. Preferably, the target concentration is close to the fasting blood glucose. The aim of the glucose clamp procedure is to maintain the blood glucose concentrations within +5% of the pre-dose target value, which is defined as 5 mg/dL below the mean fasting blood glucose. Thus, blood glucose concentrations are kept constant while the GIR varied. […]

| Substance | peak-trough (PT) ratio [1] | time GD maintained ([2]; Part C, 0.5 mg/kg SC) | GIR profile versus peak GIR response for glargine ([2]; Part C, 0.5 mg/kg SC, glargine 0.5 U/kg) | within subject variability in the glucodynamics ([2]; humans) | duration of action ([2]; humans, versus insulin glargine (FIG. 2)) |
| --- | --- | --- | --- | --- | --- |
| insulin glargine | 1.2-2.6 | – | – | – | – |
| LY: 20 kDa PEGylated insulin lispro, about 95% or more at B28, prepared essentially as in Example 9 | – | greater than 36 hours | exceeded the peak GIR response for glargine | less than 30% | longer than that of insulin glargine |

— US20110105392A1 (ELI LILLY AND COMPANY, priority 2008, published 2011)
